Assay results as given in patent US10375956B2, “Herbicidally active 2-(substituted-phenyl)-cyclopentane-1,3-dione compounds and derivatives thereof” (Syngenta Limited, priority 2013, dated 2019).
Like-named read-outs stand apart in the source and are kept apart here.

Columns and labels:
Type in all cases: in vivo
[1] = test system: Amaranthus retroflexus (AMARE); test: Test 1 glasshouse assay, post-emergence herbicidal activity; conditions: 312 h, post-emergence (Example 1B Table 1), after 13 days, read-out: Percentage phytotoxicity AMARE
Outline: (§1)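 Plants sprayed post-emergence after 8 days' growth with active ingredient in acetone/water (50:50) plus 0.5% Tween 20; glasshouse at 24/16° C day/night, 14 h light, 65% humidity. Visual percentage phytotoxicity scored 13 days later (100% = total damage, 0% = none).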

[2] = test system: Abutilon theophrasti (ABUTH); test: as above; conditions: 312 h, post-emergence (Example 1B Table 1), after 13 days, read-out: Percentage phytotoxicity ABUTH
Outline: as §1

[3] = test system: Setaria faberi (SETFA); test: as above; conditions: 312 h, post-emergence (Example 1B Table 1), after 13 days, read-out: Percentage phytotoxicity SETFA
Outline: as §1

[4] = test system: Zea mays (ZEAMX, corn/maize); test: as above; conditions: 312 h, post-emergence (Example 1B Table 1), after 13 days, read-out: Percentage phytotoxicity ZEAMX
Outline: as §1

[5] = test system: Triticum aestivum (TRZAW, winter wheat); test: Test 2 glasshouse assay (IF50 formulation, X-77), post-emergence herbicidal activity; conditions: 360 h, 15 DAA, visual score, read-out: Post-emergence herbicidal activity (percentage phytotoxicity) TRZAW; for plant injury at 125 g/ha: application rate 125 g/ha; for plant injury at 250 g/ha: application rate 250 g/ha; for plant injury at 30 g/ha: application rate 30 g/ha
Method: Seeds of a variety of monocotyledonous and dicotyledonous test plants are sown in standard soil in pots. The plants are cultivated for one day (for pre-emergence) or for about 12 days (for post-emergence) under controlled conditions in a glasshouse (warm climate species at 24/18° C., cool climate species at 20/16° C., both at day/night; 16 hours light; 65% humidity).
An “instant formulation”, known as the “IF50”, containing 50 g/liter (i.e. 5% w/v) of the “technical” (i.e. unformulated) active ingredient is prepared by dissolving the active ingredient in a mixture of organic solvents and emulsifier, details of which are provided in the Table below. This IF50 is then mixed with a small, variable amount of acetone to aid dissolution, before addition of a 0.2% v/v aqueous solution of the adjuvant X-77 (which is a mixture of alkyl aryl polyoxyethylene glycols and free fatty acids in isopropanol, CAS Registry number 11097-66-8), as the aqueous diluent, to form an aqueous spray solution which contains a predetermined concentration of the active ingredient (which varies depending on the application rate of the active ingredient to the plants) and 0.2% v/v of the adjuvant X-77. This aqueous spray solution is then sprayed onto the plants, after one day's cultivation (for pre-emergence), or after about 12 days' cultivation (range=10-13 days) (for post-emergence).
The test plants are then grown on, in a glasshouse (greenhouse) under controlled conditions (warm climate species at 24/18° C., cool climate species at 20/16° C., both at day/night; 16 hours light; 65% humidity) and are watered twice daily. 15 days after application of the test herbicide (15DAA) (for post-emergence), and 20 days after application of the test herbicide (20DAA) (for pre-emergence), the test plants are evaluated visually, and an assessed percentage phytotoxicity score is given for each herbicidal application on each plant species (with 100%=total damage to plant; 0%=no damage to plant).
Cool climate crop plants: Triticum aestivum (TRZAW, winter wheat), Brassica napus (BRSNN, rape, also called oilseed rape or rapeseed), Beta vulgaris (BEAVA, sugarbeet). Warm climate crop plants: Glycine max (GLXMA, soybean).

[6] = test system: Echinochloa crus-galli (ECHCG); test: Test 1 glasshouse assay, post-emergence herbicidal activity; conditions: 312 h, after 13 days, read-out: Percentage phytotoxicity ECHCG
Outline: (§2)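 Plants sprayed 8 days after sowing with active ingredient in acetone/water (50:50) containing 0.5% Tween 20, grown in glasshouse at 24/16°C day/night, 14 h light, 65% humidity. Phytotoxicity scored visually after 13 days as percentage damage (100% = total damage; 0% = none).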

[7] = test system: Alopecurus myosuroides (ALOMY); test: as above; conditions: 312 h, after 13 days, read-out: Percentage phytotoxicity ALOMY
Outline: as §2

[8] = test system: Echinochloa crus-galli (ECHCG); test: Test 1 glasshouse assay, pre-emergence herbicidal activity; conditions: 312 h, visual evaluation after 13 days, read-out: Percentage phytotoxicity ECHCG
Outline: (§3)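 Pots are sprayed pre-emergence, one day after sowing, with the technical active ingredient in an acetone/water mixture containing 0.5% Tween 20. After 13 days under controlled glasshouse conditions, damage is rated visually as percent phytotoxicity.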

[9] = test system: Amaranthus retroflexus (AMARE); test: as above; conditions: 312 h, visual evaluation after 13 days, read-out: Percentage phytotoxicity AMARE
Outline: as §3

[10] = test system: Abutilon theophrasti (ABUTH); test: as above; conditions: 312 h, visual evaluation after 13 days, read-out: Percentage phytotoxicity ABUTH
Outline: as §3

[11] = test system: Setaria faberi (SETFA); test: as above; conditions: 312 h, visual evaluation after 13 days, read-out: Percentage phytotoxicity SETFA
Outline: as §3

[12] = test system: Alopecurus myosuroides (ALOMY); test: as above; conditions: 312 h, visual evaluation after 13 days, read-out: Percentage phytotoxicity ALOMY
Outline: as §3

[13] = post-emergence (Example 1B Table 1)
[14] = post-emergence (Example 1B Table 2)

## C#CCC1CC(=O)C(c2c(F)cc(-c3ccc(Cl)cc3)cc2Cl)C1=O (centres unmarked) [Compound A6, 2-[2-chloro-4-(4-chlorophenyl)-6-fluorophenyl]-4-prop-2-ynylcyclopentane-1,3-dione]
[1]
  pest or weed control at 30 g/ha: 60%
  pest or weed control at 250 g/ha: 70%
[2]
  pest or weed control at 30 g/ha: 40%
  pest or weed control at 250 g/ha: 70%
[3]
  pest or weed control at 30 g/ha: 100%
  pest or weed control at 250 g/ha: 100%
[4]
  pest or weed control at 30 g/ha: 100%
  pest or weed control at 250 g/ha: 100%
[5]
  plant injury at 125 g/ha: 80%
  plant injury at 250 g/ha: 90%
[6]; [13]
  pest or weed control at 30 g/ha: 100%
  pest or weed control at 250 g/ha: 100%
[6]; [14]
  pest or weed control at 250 g/ha: 100%
[7]; [13]
  pest or weed control at 30 g/ha: 80%
  pest or weed control at 250 g/ha: 100%
[7]; [14]
  pest or weed control at 250 g/ha: 100%
[8]
  pest or weed control at 250 g/ha: 100%
[9]
  pest or weed control at 250 g/ha: 90%
[10]
  pest or weed control at 250 g/ha: 40%
[11]
  pest or weed control at 250 g/ha: 100%
[12]
  pest or weed control at 250 g/ha: 90%

## C#CCC1CC(=O)C(c2c(F)cc(-c3ccc(F)c(F)c3)cc2OC)C1=O (centres unmarked) [Compound A22]
[1]
  pest or weed control at 30 g/ha: 10%
  pest or weed control at 250 g/ha: 80%
[2]
  pest or weed control at 30 g/ha: 0%
  pest or weed control at 250 g/ha: 40%
[3]
  pest or weed control at 30 g/ha: 90%
  pest or weed control at 250 g/ha: 100%
[4]
  pest or weed control at 30 g/ha: 100%
  pest or weed control at 250 g/ha: 100%
[5]
  plant injury at 30 g/ha: 20%
  plant injury at 125 g/ha: 70%
[6]; [13]
  pest or weed control at 30 g/ha: 90%
  pest or weed control at 250 g/ha: 100%
[7]; [13]
  pest or weed control at 30 g/ha: 70%
  pest or weed control at 250 g/ha: 100%
[8]
  pest or weed control at 250 g/ha: 100%
[9]
  pest or weed control at 250 g/ha: 30%
[10]
  pest or weed control at 250 g/ha: 0%
[11]
  pest or weed control at 250 g/ha: 90%
[12]
  pest or weed control at 250 g/ha: 80%

## C#CCC1CC(=O)C(c2c(Cl)cc(-c3ccc(Cl)cc3)cc2OC)C1=O (centres unmarked) [Compound A11, 2-[2-chloro-4-(4-chlorophenyl)-6-methoxyphenyl]-4-prop-2-ynylcyclopentane-1,3-dione]
[1]
  pest or weed control at 30 g/ha: 50%
  pest or weed control at 250 g/ha: 80%
[2]
  pest or weed control at 30 g/ha: 30%
  pest or weed control at 250 g/ha: 80%
[3]
  pest or weed control at 30 g/ha: 100%
  pest or weed control at 250 g/ha: 100%
[4]
  pest or weed control at 30 g/ha: 100%
  pest or weed control at 250 g/ha: 100%
[5]
  plant injury at 30 g/ha: 60%
  plant injury at 250 g/ha: 90%
[6]; [13]
  pest or weed control at 30 g/ha: 100%
  pest or weed control at 250 g/ha: 100%
[7]; [13]
  pest or weed control at 30 g/ha: 70%
  pest or weed control at 250 g/ha: 100%
[8]
  pest or weed control at 250 g/ha: 100%
[9]
  pest or weed control at 250 g/ha: 80%
[10]
  pest or weed control at 250 g/ha: 40%
[11]
  pest or weed control at 250 g/ha: 100%
[12]
  pest or weed control at 250 g/ha: 100%

## C#CCC1CC(=O)C(c2c(C)cc(-c3ncc(Cl)cc3F)cc2C)C1=O (centres unmarked) [Compound A3]
[1]; 62.5 g/ha
  pest or weed control at 62.5 g/ha: 60%
[1]
  pest or weed control at 250 g/ha: 90%
[2]; 62.5 g/ha
  pest or weed control at 62.5 g/ha: 80%
[2]
  pest or weed control at 250 g/ha: 90%
[3]; 62.5 g/ha
  pest or weed control at 62.5 g/ha: 100%
[3]
  pest or weed control at 250 g/ha: 100%
[4]; 62.5 g/ha
  pest or weed control at 62.5 g/ha: 100%
[4]
  pest or weed control at 250 g/ha: 100%
[5]
  plant injury at 30 g/ha: 80%
  plant injury at 250 g/ha: 90%
[6]; [13]
  pest or weed control at 62.5 g/ha: 100%
  pest or weed control at 250 g/ha: 100%
[6]; [14]
  pest or weed control at 62.5 g/ha: 100%
  pest or weed control at 250 g/ha: 100%
[7]; [13]
  pest or weed control at 62.5 g/ha: 100%
  pest or weed control at 250 g/ha: 100%
[7]; [14]
  pest or weed control at 62.5 g/ha: 100%
  pest or weed control at 250 g/ha: 100%
[8]
  pest or weed control at 250 g/ha: 100%
[9]
  pest or weed control at 250 g/ha: 60%
[10]
  pest or weed control at 250 g/ha: 20%
[11]
  pest or weed control at 250 g/ha: 100%
[12]
  pest or weed control at 250 g/ha: 100%

## C#CCC1CC(=O)C(c2c(Cl)cc(-c3ccc(F)cc3)cc2OC)C1=O (centres unmarked) [Compound A7]
[1]
  pest or weed control at 30 g/ha: 20%
  pest or weed control at 250 g/ha: 80%
[2]
  pest or weed control at 30 g/ha: 30%
  pest or weed control at 250 g/ha: 80%
[3]
  pest or weed control at 30 g/ha: 100%
  pest or weed control at 250 g/ha: 100%
[4]
  pest or weed control at 30 g/ha: 100%
  pest or weed control at 250 g/ha: 100%
[5]
  plant injury at 30 g/ha: 50%
  plant injury at 250 g/ha: 90%
[6]; [13]
  pest or weed control at 30 g/ha: 100%
  pest or weed control at 250 g/ha: 100%
[7]; [13]
  pest or weed control at 30 g/ha: 70%
  pest or weed control at 250 g/ha: 100%
[8]
  pest or weed control at 250 g/ha: 100%
[9]
  pest or weed control at 250 g/ha: 70%
[10]
  pest or weed control at 250 g/ha: 0%
[11]
  pest or weed control at 250 g/ha: 100%
[12]
  pest or weed control at 250 g/ha: 90%
